Results taken from US20110319424A1, “NAPHTHYRIDIN-2(1H) -ONE COMPOUNDS USEFUL AS ANTIBACTERIALS” (priority 2008, published 2011).
In brackets after ≈: the same amount, converted by molar mass.

test system: not listed separately; experiment: General antimicrobial activity assay (whole-cell, CLSI broth microdilution, MIC); assay type: cell-based; details: against a strain of at least one of the organisms listed; broth microdilution, 0.016 to 64 μg/mL
Protocol: (§1) General Antimicrobial Activity Assay
(§2) Whole-cell antimicrobial activity was determined by broth microdilution using the Clinical and Laboratory Standards Institute (CLSI) recommended procedure, Document M7-A7, “Methods for Dilution Susceptibility Tests for Bacteria that Grow Aerobically”. The compounds were tested in serial two-fold dilutions ranging from 0.016 to 64 μg/mL.
(§3) Compounds were evaluated against gram-positive organisms, selected from i) Staphylococcus aureus, ii) Streptococcus pneumoniae, and iii) Enterococcus faecalis. Two compounds were additionally evaluated against Streptococcus pyogenes, and Enterococcus faecium.
(§4) In addition, compounds were evaluated against gram-negative organisms selected from iv) Haemophilus influenzae, v) Moraxella catarrhalis and vi) Escherichia coll. Two compounds were additionally evaluated against Pseudomonas aeruginosa, Proteus mirabilis, Enterobacter cloacae, Enterobacter aerogenes, Klebsiella pneumoniae and Stenotrophomonas maltophilia.
(§5) The minimum inhibitory concentration (MIC) was determined as the lowest concentration of compound that inhibited visible growth. A mirror reader was used to assist in determining the MIC endpoint.

| SMILES | MIC |
| --- | --- |
| O=c1ccc2ncc(F)cc2n1CCN1CCC(NCc2ccc(F)cc2)CC1 [Example 14, 7-Fluoro-1-[2-(4-{[(4-fluorophenyl)methyl]amino}-1-piperidinyl)ethyl]-1,5-naphthyridin-2(1H)-one] | 4 µg/mL (≈ 10 µM) |
| O=c1ccc2ncccc2n1CCN1CCC(NCc2cccc(Cl)c2)CC1 [Example 57, 1-[2-(4-{[(3-chlorophenyl)methyl]amino}-1-piperidinyl)ethyl]-1,5-naphthyridin-2(1H)-one] | 4 µg/mL (≈ 10.1 µM) |
| O=c1ccc2ncc(F)cc2n1CCN1CCC(NCc2nc(Br)cs2)CC1 [Example 60, 1-[2-(4-{[(4-bromo-1,3-thiazol-2-yl)methyl]amino}-1-piperidinyl)ethyl]-7-fluoro-1,5-naphthyridin-2(1H)-one] | 32 µg/mL (≈ 68.6 µM) |
| Cc1ncc(CNC2CCN(CCn3c(=O)ccc4ncc(F)cc43)CC2)[nH]1.O=C(O)C(F)(F)F [Example 119, 7-fluoro-1-[2-(4-{[(2-methyl-1H-imidazol-4-yl)methyl]amino}-1-piperidinyl)ethyl]-1,5-naphthyridin-2(1H)-one trifluoroacetate] | > 64 µg/mL |
| Cc1ncc(CN[C@H]2CCN(CCn3c(=O)ccc4ncc(F)cc43)C[C@H]2O)cc1F [Example 128, 7-fluoro-1-[2-((3R,4S)-4-{[(5-fluoro-6-methyl-3-pyridinyl)methyl]amino}-3-hydroxy-1-piperidinyl)ethyl]-1,5-naphthyridin-2(1H)-one] | 32 µg/mL (≈ 74.5 µM) |

test system: gram-positive organisms i) Staphylococcus aureus, ii) Streptococcus pneumoniae, iii) Enterococcus faecalis and gram-negative organisms iv) Haemophilus …; experiment: as above; assay type: cell-based; details: organisms i)-vi) of the antimicrobial activity assay
Protocol: as §1, §2, §3, §4, §5

| SMILES | activity against organisms i)-vi) |
| --- | --- |
| O=c1ccc2ncccc2n1CCN1CCC(NCc2cc(Cl)cc(Cl)c2)CC1 [Example 58, 1-[2-(4-{[(3,5-dichlorophenyl)methyl]amino}-1-piperidinyl)ethyl]-1,5-naphthyridin-2(1H)-one] | no activity |

test system: Mycobacterium tuberculosis H37Rv; experiment: Mycobacterium tuberculosis H37Rv inhibition assay (MIC, resazurin fluorescence); assay type: cell-based; details: ATCC 25618 / H37Rv, 144 h, H37Rv strain (ATCC25618), Middlebrook 7H9, six days at 37° C. then resazurin 48 hours

| SMILES | MIC |
| --- | --- |
| O=c1ccc2ncc(F)cc2n1CCN1CCC(NCc2ccc(F)cc2)CC1 [Example 14, 7-Fluoro-1-[2-(4-{[(4-fluorophenyl)methyl]amino}-1-piperidinyl)ethyl]-1,5-naphthyridin-2(1H)-one] | ≤ 2.4 µg/mL |
| O=c1ccc2ncccc2n1CCN1CCC(NCc2cccc(Cl)c2)CC1 [Example 57, 1-[2-(4-{[(3-chlorophenyl)methyl]amino}-1-piperidinyl)ethyl]-1,5-naphthyridin-2(1H)-one] | ≤ 2.4 µg/mL |
| O=c1ccc2ncc(F)cc2n1CCN1CCC(NCc2cccc(Cl)c2)CC1 [Example 103, 1-[2-(4-{[(3-chlorophenyl)methyl]amino}-1-piperidinyl)ethyl]-7-fluoro-1,5-naphthyridin-2(1H)-one] | ≤ 2.4 µg/mL |
| COc1cnc2ccc(=O)n(CCN3CCC(NCc4cncc(Cl)n4)CC3)c2c1 [Example 111, 1-[2-(4-{[(6-chloro-2-pyrazinyl)methyl]amino}-1-piperidinyl)ethyl]-7-(methyloxy)-1,5-naphthyridin-2(1H)-one] | ≤ 2.4 µg/mL |
| COc1cnc2ccc(=O)n(CCN3CCC(NCc4ccnc(C(F)(F)F)n4)CC3)c2c1 [Example 113, 7-(methyloxy)-1-{2-[4-({[2-(trifluoromethyl)-4-pyrimidinyl]methyl}amino)-1-piperidinyl]ethyl}-1,5-naphthyridin-2(1H)-one] | ≤ 2.4 µg/mL |
| COc1cnc2ccc(=O)n(CCN3CCC(NCc4cc(C)cc(C)n4)CC3)c2c1 [Example 114, 1-[2-(4-{[(4,6-dimethyl-2-pyridinyl)methyl]amino}-1-piperidinyl)ethyl]-7-(methyloxy)-1,5-naphthyridin-2(1H)-one] | ≤ 2.4 µg/mL |
| COc1cnc2ccc(=O)n(CCN3CCC(NCc4ccc(Cl)cn4)CC3)c2c1 [Example 116] | ≤ 2.4 µg/mL |
| CC(C)(C)c1ccc(CNC2CCN(CCn3c(=O)ccc4ncc(F)cc43)CC2)cc1 [Example 121, 1-{2-[4-({[4-(1,1-dimethylethyl)phenyl]methyl}amino)-1-piperidinyl]ethyl}-7-fluoro-1,5-naphthyridin-2(1H)-one] | ≤ 2.4 µg/mL |
| Cc1cc(CNC2CCN(CCn3c(=O)ccc4ncc(F)cc43)CC2)cnc1C [Example 125, 1-[2-(4-{[(5,6-dimethyl-3-pyridinyl)methyl]amino}-1-piperidinyl)ethyl]-7-fluoro-1,5-naphthyridin-2(1H)-one] | ≤ 2.4 µg/mL |
| Cc1ncc(CN[C@H]2CCN(CCn3c(=O)ccc4ncc(F)cc43)C[C@H]2O)cc1F [Example 128, 7-fluoro-1-[2-((3R,4S)-4-{[(5-fluoro-6-methyl-3-pyridinyl)methyl]amino}-3-hydroxy-1-piperidinyl)ethyl]-1,5-naphthyridin-2(1H)-one] | ≤ 2.4 µg/mL |
| Cc1ncc(CN[C@H]2CCN(CCn3c(=O)ccc4ncc(F)cc43)C[C@H]2O)cc1Br [Example 130, 1-[2-((3R,4S)-4-{[(5-bromo-6-methyl-3-pyridinyl)methyl]amino}-3-hydroxy-1-piperidinyl)ethyl]-7-fluoro-1,5-naphthyridin-2(1H)-one] | ≤ 2.4 µg/mL |
| CC1(NCc2ccc(C(F)(F)F)nc2)CCN(CCn2c(=O)ccc3ncc(F)cc32)CC1 [Example 131, 7-fluoro-1-{2-[4-methyl-4-({[6-(trifluoromethyl)-3-pyridinyl]methyl}amino)-1-piperidinyl]ethyl}-1,5-naphthyridin-2(1H)-one] | ≤ 2.4 µg/mL |
| COc1cnc2ccc(=O)n(CCN3CCC(C)(NCc4ccc(Cl)c(Cl)c4)CC3)c2c1 [Example 132] | ≤ 2.4 µg/mL |
